The source of these data is patent US20240368096A1 (Enanta Pharmaceuticals, Inc., priority 2022, published 2024).

For the first test, the system named is HBV. Briefly: HBV infection in HepG2-NTCP cells (HBeAg AlphaLISA in supernatants). In kind it is cell-based. The conditions noted are these: Hepatitis B virus, 192 h, read-out: Cellular EC50 (μM). In a few lines:
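HepG2-NTCP A3 cells were pre-incubated 2 h with 3-fold serially diluted compounds, then infected with HBV at 2000 GE/cell with 4% PEG (0.5% DMSO final). After washing on day 1, cells stayed in 2.5% DMSO medium; supernatant HBeAg measured by AlphaLISA on day 8, EC50 versus DMSO controls.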
For orientation: Bead proximity is the source of the signal in Alpha formats.
For the molecule `CCOP(=O)(OCC)c1cccc(-c2cc3c(cc2Cl)N(c2ccccc2)C[C@@H](CC(C)C)N(C)S3(=O)=O)c1` [Example 169], the EC50 was greater than 1 µM.

Staying with this test, now noted: Hepatitis B virus, 192 h; HBV infection of HepG2-NTCP cells; HBeAg in supernatants at day 8 post infection; read-out: Cellular EC50.
As to `CN1[C@H](C2CCCCC2)CN(c2ccccc2)c2cc(OCC3CCC3)c(-c3ccc(F)c(C(=O)O)c3)cc2S1(=O)=O` [Example 364], the EC50 was less than 0.1 µM.

Consider `CN1[C@H](C2CCCCC2)CN(c2ccccc2)c2cc(Cl)c(-c3cc(C(=O)O)c4cn[nH]c4c3)cc2S1(=O)=O` [Example 208, (R)-6-(7-chloro-3-cyclohexyl-2-methyl-1,1-dioxido-5-phenyl-2,3,4,5-tetrahydrobenzo[f][1,2,5]thiadiazepin-8-yl)-1H-indazole-4-carboxylic acid], for which the EC50 is greater than 1 µM.

Turning to `CCCC[C@@H]1CN(c2ccccc2)c2cc(-n3nnnc3C)c(-c3ccc(F)c(C(=O)O)c3)cc2S(=O)(=O)N1C` [Example 525], the EC50 was greater than 1 µM.

Regarding `CCCCOc1cccc(N2C[C@@H](C3CCCCC3)N(C)S(=O)(=O)c3cc(-c4ccc(F)c(C(=O)O)c4)c(Cl)cc32)c1` [Example 310], the EC50 is less than 0.1 µM.

On to `CCCC[C@@H]1CN(c2ccccc2)c2cc(-n3cncn3)c(-c3ccc(F)c(C(=O)O)c3)cc2S(=O)(=O)N1C` [Example 526], for which the concentration giving a half-maximal response (EC50) is less than 0.1 µM.

For `CN1[C@H](C2CCCCC2)CN(c2ccccc2)c2cc(Cl)c(-c3cc(C(=O)O)ccc3Cl)cc2S1(=O)=O` [Example 151, (R)-4-chloro-3-(7-chloro-3-cyclohexyl-2-methyl-1,1-dioxido-5-phenyl-2,3,4,5-tetrahydrobenzo[f][1,2,5]thiadiazepin-8-yl)benzoic acid], the EC50 is 0.1 to 1 µM.

Take `CN1[C@H](C2CCCCC2)CN(c2ccccc2)c2cc(C3CCN(C(=O)OC(C)(C)C)CC3)c(-c3ccc(F)c(C(=O)O)c3)cc2S1(=O)=O` [Example 590]: the EC50 is 0.1 to 1 µM.

Consider `CC(C)C[C@@H]1CN(c2ccccc2)c2cc(Cl)c(-c3cccc(CCC(=O)O)c3)cc2S(=O)(=O)N1C` [Example 172], for which the EC50 is greater than 1 µM.

Turning to `CN1[C@H](C2CCCCC2)CN(c2ccccc2)c2cc(Cl)c(-c3cccc(C(=O)O)n3)cc2S1(=O)=O` [Example 138, (R)-6-(7-chloro-3-cyclohexyl-2-methyl-1,1-dioxido-5-phenyl-2,3,4,5-tetrahydrobenzo[f][1,2,5]thiadiazepin-8-yl)picolinic acid], the EC50 was in the range of 0.1 to 1 µM.

As for `CN1[C@H](C2CCCCC2)CN(c2ccccc2)c2cc(OCc3ccco3)c(-c3ccc(F)c(C(=O)O)c3)cc2S1(=O)=O` [Example 334], the EC50 was less than 0.1 µM.

As to `CN1[C@H](C2CCCCC2)CN(c2ccccc2)c2cc(Cl)c(-c3cc(C(=O)O)c4ncccc4c3)cc2S1(=O)=O` [Example 210], the EC50 was in the range of 0.1 to 1 µM.

Consider `CN1[C@H](C2CCC2)CN(c2ccccc2)c2cc(Cl)c(-c3cc(F)c(C(=O)O)s3)cc2S1(=O)=O` [Example 121], for which the EC50 was less than 0.1 µM.

With `CN1[C@H](C2CCCCC2)CN(c2ccccc2)c2cc(Cl)c(-c3cc(NC(=O)OCC4CC(F)(F)C4)c(C(=O)O)s3)cc2S1(=O)=O` [Example 253], the half-maximal effective concentration (EC50) was less than 0.1 µM.

With `CC(C)C[C@@H]1CN(c2ccccc2)c2cc(Oc3ccccc3F)c(-c3ccc(F)c(C(=O)O)c3)cc2S(=O)(=O)N1C` [Example 429], the EC50 was less than 0.1 µM.

With `CN1[C@H](C2CCCCC2)CN(c2ccccc2)c2cc(C#CC(C)(C)O)c(-c3ccc(F)c(C(=O)O)c3)cc2S1(=O)=O` [Example 603], the 50% effective concentration (EC50) lay within 0.1 to 1 µM.

Take `CN1[C@H](C2CCCCC2)CNc2cc(-c3ccoc3)c(-c3ccc(F)c(C(=O)O)c3)cc2S1(=O)=O` [Example 571]: the EC50 is 0.1 to 1 µM.

Regarding `CCCCC[C@@H](C)Oc1cc2c(cc1-c1cc(F)c(C(=O)O)s1)S(=O)(=O)N(C)[C@H](C1CCCCC1)CN2c1ccccc1` [Example 491], the EC50 was 0.1 to 1 µM.

Consider `CN1[C@H](C2CCCCC2)CN(c2ccccc2)c2cc(Oc3cc(F)ccc3F)c(-c3ccc(F)c(C(=O)O)c3)cc2S1(=O)=O` [Example 403], for which the EC50 is less than 0.1 µM.

As for `CN1[C@H](C2CCCCC2)CN(c2ccccc2)c2cc(Cl)c(-c3cc(NC(=O)OCC4(C)CC4)c(C(=O)O)s3)cc2S1(=O)=O` [Example 254], the EC50 was less than 0.1 µM.

As to `CC(C)Oc1cccc(COc2cc3c(cc2-c2cc(F)c(C(=O)O)s2)S(=O)(=O)N(C)[C@H](C2CCCCC2)CN3c2ccccc2)c1` [Example 506], the EC50 is less than 0.1 µM.

For `CC(C)C[C@@H]1CN(c2ccccc2)c2cc(Oc3cc(Cl)cc(Cl)c3)c(-c3ccc(F)c(C(=O)O)c3)cc2S(=O)(=O)N1C` [Example 435], the EC50 is less than 0.1 µM.

In the case of `CN1[C@H](C2CCCCC2)CN(c2ccccc2)c2cc(OCc3nccs3)c(-c3ccc(F)c(C(=O)O)c3)cc2S1(=O)=O` [Example 340], the EC50 is less than 0.1 µM.

Consider `CC(C)CC1CN(c2ccccc2)c2cc(N3CCCC3)c(-c3cccc(C(=O)O)c3)cc2S(=O)(=O)N1C` (stereo not shown) [Example 544], for which the concentration giving a half-maximal response (EC50) lay within 0.1 to 1 µM.

As to `CN1[C@H](C2CCCCC2)CN(c2ccccc2)c2cc(OCCOC(C)(C)C)c(-c3cc(F)c(C(=O)O)s3)cc2S1(=O)=O` [Example 495], the EC50 was less than 0.1 µM.

As for `CC(C)C[C@@H]1CN(c2ccccc2)c2cc(Cl)c(-c3cccc(C4(C(=O)O)CC4)c3)cc2S(=O)(=O)N1C` [Example 162], the 50% effective concentration (EC50) was greater than 1 µM.

`O=C(O)c1cccc(-c2cc3c(cc2F)N(c2ccccc2)C[C@@H]2C[C@H](C(F)(F)F)CN2S3(=O)=O)c1` [Example 11]: the EC50 is greater than 1 µM.

Regarding `CN1[C@H](C2CCCCC2)CN(c2ccccc2)c2cc(Cl)c(-c3cc(C(=O)O)[nH]n3)cc2S1(=O)=O` [Example 135, (R)-3-(7-chloro-3-cyclohexyl-2-methyl-1,1-dioxido-5-phenyl-2,3,4,5-tetrahydrobenzo[f][1,2,5]thiadiazepin-8-yl)-1H-pyrazole-5-carboxylic acid], the concentration giving a half-maximal response (EC50) lay in the range of 0.1 to 1 µM.

In the case of `CCCC[C@H]1CN(c2ccccc2)c2cc(N3CCCCC3)c(-c3cccc(C(=O)O)c3)cc2S(=O)(=O)N1C` [Example 540], the EC50 was greater than 1 µM.

Turning to `CCCCOc1ccc(N2C[C@@H](C3CCCCC3)N(C)S(=O)(=O)c3cc(-c4ccc(F)c(C(=O)O)c4)c(Cl)cc32)cc1` [Example 311], the EC50 fell in the range of 0.1 to 1 µM.

As to `CSc1cc2c(cc1-c1ccc(F)c(C(=O)O)c1)S(=O)(=O)N1CC(C)(C)CC1CN2c1ccccc1` (stereo not shown) [Example 20], the concentration giving a half-maximal response (EC50) lay within 0.1 to 1 µM.

For the molecule `CN1[C@H](CBr)CN(c2ccccc2)c2cc(Cl)c(-c3ccc(F)c(C(=O)O)c3)cc2S1(=O)=O` [Example 107, (S)-5-(3-(bromomethyl)-7-chloro-2-methyl-1,1-dioxido-5-phenyl-2,3,4,5-tetrahydrobenzo[f][1,2,5]thiadiazepin-8-yl)-2-fluorobenzoic acid], the EC50 was greater than 1 µM.

As for `CC(C)OCCOC(=O)Nc1cc(-c2cc3c(cc2Cl)N(c2ccccc2)C[C@@H](C2CCCCC2)N(C)S3(=O)=O)sc1C(=O)O` [Example 257], the EC50 is less than 0.1 µM.

For `CC(C)C[C@@H]1CN(c2ccccc2)c2cc(Nc3cccc(F)c3)c(-c3ccc(Cl)c(C(=O)O)c3)cc2S(=O)(=O)N1C` [Example 547], the EC50 was 0.1 to 1 µM.

On to `CN1[C@H](C2CCCCC2)CN(c2ccccc2)c2cc(-n3ccccc3=O)c(-c3ccc(F)c(C(=O)O)c3)cc2S1(=O)=O` [Example 530], for which the EC50 is greater than 1 µM.

`CC(C)C[C@@H]1CN(c2ccccc2)c2cc(C3=CCC(C)(C)CC3)c(-c3ccc(C4=CCC(C)(C)CC4)c(C(=O)O)c3)cc2S(=O)(=O)N1C` [Example 218]: the EC50 is 0.1 to 1 µM.

`CN1[C@H](C2CCCCC2)CN(c2ccccc2)c2cc(OC3CCCC3)c(-c3ccc(F)c(C(=O)O)c3)cc2S1(=O)=O` [Example 373]: the EC50 is less than 0.1 µM.

For `CN1[C@H](C2CCCCC2)CNc2cc(C34CC(C3)C4)c(-c3ccc(F)c(C(=O)O)c3)cc2S1(=O)=O` [Example 585], the EC50 was 0.1 to 1 µM.

With `CC(C)C[C@@H]1CN(c2ccccc2)c2cc(OC3CN(C)C3)c(-c3ccc(F)c(C(=O)O)c3)cc2S(=O)(=O)N1C` [Example 447], the EC50 is greater than 1 µM.

Consider `CN1[C@H](C2CCC(F)(F)CC2)CN(c2ccccc2)c2cc(Cl)c(-c3ccc(Cl)c(C(=O)O)c3)cc2S1(=O)=O` [Example 29], for which the EC50 is 0.1 to 1 µM.

`CN1[C@H](C2CCCCC2)CN(c2ccccc2)c2cc(Cl)c(-c3cccc(S(N)(=O)=O)c3)cc2S1(=O)=O` [Example 175]: the EC50 is greater than 1 µM.

Turning to `CN1[C@H](C2CCCCC2)CN(c2ccccc2)c2cc(Cl)c(-c3cc4c(c(C(=O)O)c3)OC(F)(F)O4)cc2S1(=O)=O` [Example 154, (R)-6-(7-chloro-3-cyclohexyl-2-methyl-1,1-dioxido-5-phenyl-2,3,4,5-tetrahydrobenzo[f][1,2,5]thiadiazepin-8-yl)-2,2-difluorobenzo[d][1,3]dioxole-4-carboxylic acid], the concentration giving a half-maximal response (EC50) was in the range of 0.1 to 1 µM.

Turning to `CC(C)C[C@@H]1CN(c2ccccc2)c2cc(Cl)c(-c3ccc(-c4ccoc4)c(C(=O)O)c3)cc2S(=O)(=O)N1C` [Example 216], the EC50 lay in the range of 0.1 to 1 µM.

Consider `CCCCC1CN(c2ccccc2)c2cc(Cl)c(-c3ccc(F)c(C(=O)O)c3)cc2S(=O)(=O)N1C` (stereo not shown) [Example 71], for which the EC50 was 0.1 to 1 µM.

Take `CC(=O)Nc1ccc(-c2cc3c(cc2Cl)N(c2ccccc2)C[C@@H](C2CCCCC2)N(C)S3(=O)=O)cc1C(=O)O` [Example 229]: the EC50 is less than 0.1 µM.

As to `CN1[C@H](C2CCCC2)CN(c2ccccc2)c2cc(Cl)c(-c3ccc(F)c(C(=O)O)c3)cc2S1(=O)=O` [Example 66], the concentration for a half-maximal effect (EC50) was 0.1 to 1 µM.

Consider `CN1[C@H](C2CCCCC2)CN(c2ccccc2)c2cc(Cl)c(-c3cc(NC(=O)OC4CCCC4)c(C(=O)O)s3)cc2S1(=O)=O` [Example 251], for which the EC50 is less than 0.1 µM.

In the case of `CN1[C@H](C2CCCCC2)CN(c2ccccc2)c2cc(OCc3cnco3)c(-c3ccc(F)c(C(=O)O)c3)cc2S1(=O)=O` [Example 343], the concentration giving a half-maximal response (EC50) lay within 0.1 to 1 µM.

Turning to `CN1[C@H](C2CCCCC2)CN(c2cccc(OC(F)(F)F)c2)c2cc(Cl)c(-c3ccc(F)c(C(=O)O)c3)cc2S1(=O)=O` [Example 293], the EC50 is less than 0.1 µM.

The EC50 is the concentration giving half of the maximal effect.
